Like-named read-outs stand apart in the source and are kept apart here.
Assay: Pharmacokinetic study in mice, plasma and brain structures, LC/MS/MS
Assay type: in vivo, Swiss albino mice
Conditions: Swiss albino, mouse, ip, 1.25 mg/kg i.p.
Experimental: Blood samples from the Swiss albino mice were collected at 0 (pre-dose), 5, 15, 30, 60, 120, 240 and 480 min after a compound administration. The blood samples and brain structures were collected under general anesthesia induced by i.p. injection of 50 mg/kg ketamine plus 8 mg/kg xylazine. The blood samples were taken into heparinized tubes, immediately centrifuged at 1000 × g for 10 min, and plasma was collected. The plasma samples and brain structures were immediately frozen at -30°C and -80°C, respectively.
The plasma and tissue sample pretreatment procedure involved acetonitrile precipitation. A 5 μL aliquot of the IS working solution (100 ng/mL) was added to 50 μL of the collected mouse plasma sample, which was then vortex-mixed for 10 seconds. Thereafter, 200 μL of acetonitrile was added, vortexed during 20 min, and then centrifuged (1000 × g, 10 min). The supernatant (100 μL) was then transferred to insert placed in an autosampler vial, and a 10 μL volume of this was injected onto the HPLC column. Tissue samples were thawed before use, and whole hippocampus, striatum and frontal cortex were weighted and placed in a glass mortar and pestle tissue grinder and homogenized with an appropriate amount of phosphate buffer (pH 7.4) in 1:5 ratio. Afterward, 50 μL of tissue homogenates were transferred to new Eppendorf tubes and spiked with 5 μL of the internal standard working solution. All samples were stored on ice during the preparation process. This was followed by procedures like those described above.
The LC/ESI-MS/MS experiments were performed on an Applied Biosystems/MDS Sciex (Concord, Ontario, Canada) API 2000 triple quadrupole mass spectrometer equipped with an electrospray (ESI) ionization interface. This instrument was coupled to an Agilent 1100 (Agilent Technologies, Waldbronn, Germany) LC system. Data acquisition and processing were accomplished using Sciex Analyst 1.4.2 data collection and integration software.
An XBridge C18 (2.1 x 30 mm, 3.5 μm) analytical column (Waters, Milford, Massachusetts, USA) was used for compound separation. The temperatures of the column thermostat and the autosampler were set at 25°C and 10°C, respectively. The mobile phase consisted of a mixture of acetonitrile with addition of 0.1% formic acid (solvent A) and water with addition of 0.1% formic acid (solvent B) and was set at a flow rate of 0.6 mL/min. Starting amount of solvent A is 10%, isocratic elution from 0 to 3 min, and then gradient up to 90% of solvent A, and maintained to 10 min, and then gradient down to 10% of solvent A, and maintained to 15 min.
The ion source parameters were as follows: ion spray voltage: 5500 V; nebulizer gas (gas 1): 20 psi; turbo gas (gas 2): 25 psi; temperature of the heated nebulizer: 400°C; curtain gas: 40 psi; collision gas: 6 psi. Mass spectra were acquired by SRM with precursor/predominant product ion transitions for each analyte. The mass spectral Q1→Q3 transitions monitored for AZ-853, AZ-861 and for IS (nebivolol), were m/z 453.9→235.1; 504.3→285.1 and 406.2→151.1, respectively. The peak widths of precursor and product ions were set to 0.7 full width half-height. Quantification was done via peak area ratio.
Pharmacokinetic parameters were calculated by a non-compartmental approach from the average concentration values, using Phoenix WinNonlin software (Certara, Princeton, NJ 08540 USA). First order elimination rate constant (λz) was calculated by linear regression of time versus log concentration. Next, the area under the mean serum and tissue concentration versus time curve (AUC0→t) was estimated using the log-linear trapezoidal rule (1), where Ci is the plasma concentration measured at t1.
AUC0→t=∑i=1n((Ci+Ci+1)/2)∙(ti+1−ti). (1)
Area under the first-moment curve (AUMC0→t) was estimated by calculation of the total area under the first-moment curve using the Eq (2), where Ci is the plasma concentration measured at t1. AUMC0→t=∑i=1n((ti∙Ci+ti+1∙Ci+1)/2)∙(ti+1−ti). […]

[1] = hippocampus, 1.25 mg/kg, read-out: Concentration, hippocampus (individual animals)
[2] = hippocampus, 1.25 mg/kg, read-out: Concentration, hippocampus (Mean)
[3] = plasma, 1.25 mg/kg, read-out: Concentration, plasma (Mean)
[4] = plasma, 1.25 mg/kg, read-out: Concentration, plasma (individual animals)
[5] = striatum, 1.25 mg/kg, read-out: Concentration, striatum (Mean)
[6] = striatum, 1.25 mg/kg, read-out: Concentration, striatum (individual animals)

For `Cn1c(=O)c2c(nc3n(CCCCN4CCN(c5cccc(C(F)(F)F)c5)CC4)ccn23)n(C)c1=O` [AZ-861, 1,3-dimethyl-8-(4-(4-(3-(trifluoromethyl)phenyl)piperazin-1-yl)butyl)-1H-imidazo[2,1-f]purine-2,4(3H,8H)-dione], the concentration at 5 min [1] was 289 ng/mL, the concentration at 15 min [2] was 307 ng/mL and the concentration at 15 min [1] was 264 ng/mL. It also gave a concentration at 30 min [2] of 253 ng/mL, a concentration at 30 min [1] of 245 ng/mL and a concentration at 60 min [2] of 96.9 ng/mL. For the same molecule, the concentration at 60 min [1] was 101 ng/mL, the concentration at 120 min [2] was 54.3 ng/mL and the concentration at 120 min [1] was 60.2 ng/mL. It also gave a concentration at 240 min [2] of 19.6 ng/mL, a concentration at 240 min [1] of 18.2 ng/mL and a concentration at 480 min [2] of 15.8 ng/mL. The concentration at 480 min [1] was 15.8 ng/mL, the Cmax (hippocampus, 1.25 mg/kg, read-out: Cmax, hippocampus) was 308 ng/g and the Tmax (hippocampus, 1.25 mg/kg, read-out: tmax, hippocampus (converted)) was 15 min. It also gave a CL/F (plasma) of 590 mL/min/kg, an AUC(0-t) (plasma, read-out: AUC0→t, plasma (converted)) of 34.5 ng·h/mL and an MRT (plasma, read-out: MRT, plasma (converted)) of 52.3 min. The concentration at 5 min [3] was 59.8 ng/mL, the concentration at 15 min [3] was 36.3 ng/mL and the concentration at 15 min [4] was 26.4 ng/mL. The concentration at 30 min [3] was 24.8 ng/mL, the concentration at 60 min [3] was 5.84 ng/mL and the concentration at 60 min [4] was 7.37 ng/mL. The concentration at 120 min [3] was 2.58 ng/mL, the concentration at 120 min [4] was 1.84 ng/mL and the concentration at 240 min [3] was 0.56 ng/mL. For the same molecule, the concentration at 480 min [3] was 0.27 ng/mL, the concentration at 480 min [4] was 0.25 ng/mL and the Vd/F (plasma, 1.25 mg/kg, plasma, read-out: Vd/F) was greater than 84 L/kg. It also gave a Cmax (plasma, 1.25 mg/kg, read-out: Cmax, plasma) of 59.6 ng/mL, a Tmax (plasma, 1.25 mg/kg, read-out: tmax, plasma) of no more than 5 min and a Kp (striatum, ratio of AUC values, read-out: Brain structure-to-plasma concentration ratio, striatum (S/P)) of 8.97. It also gave an AUC(0-t) (striatum, read-out: AUC0→t, striatum (converted)) of 309 ng·h/mL, an MRT (striatum, read-out: MRT, striatum (converted)) of 56.9 min and a concentration at 5 min [5] of 181 ng/mL. It also gave a concentration at 5 min [6] of 190 ng/mL, a concentration at 15 min [5] of 334 ng/mL and a concentration at 15 min [6] of 377 ng/mL. It also gave a concentration at 30 min [5] of 305 ng/mL, a concentration at 30 min [6] of 341 ng/mL and a concentration at 60 min [5] of 58.1 ng/mL. It also gave a concentration at 60 min [6] of 61.6 ng/mL, a concentration at 120 min [5] of 25.6 ng/mL and a concentration at 120 min [6] of 28.4 ng/mL. For the same molecule, the concentration at 240 min [5] was 5.89 ng/mL, the concentration at 240 min [6] was 6.95 ng/mL and the concentration at 480 min [5] was 1.86 ng/mL. For the same molecule, the concentration at 480 min [6] was 1.65 ng/mL, the Cmax (striatum, 1.25 mg/kg, read-out: Cmax, striatum) was 333 ng/g and the Tmax (striatum, 1.25 mg/kg, read-out: tmax, striatum (converted)) was 15 min.

From article PMC7413516, “Antidepressant-like activity and safety profile evaluation of 1H-imidazo[2,1-f]purine-2,4(3H,8H)-dione derivatives as 5-HT1A receptor partial agonists” (PLoS ONE, 2020)
